Assay [1] relates to shoots of Jatropha curcas. The assay is described as follows: Rooting of well grown shoots on full strength MS medium. The format is cell-based. The settings on record: full strength MS medium supplemented with IBA (0.41 μM). The protocol:
Well grown shoots of Jatropha curcas were separated individually and rooted on full strength MS medium supplemented with IBA (0.41 μM). Rooting was 80% and occurred after 30-45 days of culture without any intermediary callus phase. (FIG. 4)

Assay [2] concerns Jatropha leaf disc explants. The assay is described as follows: Adventitious bud induction and callus formation from leaf disc explants on initiation media. The conditions noted are these: TDZ treatment. The format is cell-based, Jatropha curcas. From the text:
Micropropagated true-to-type Jatropha curcas plants were produced and leaf discs were isolated and sterilized using the methods described in Example 1.
Experiments were set-up in a single-factor CRD (one-way ANOVA) to identify the most optimal concentrations of TDZ, BAP, and IBA in the initiation media. Initiated shoots were further propagated as described in the above Examples by being transferred to proliferation and elongation medium which was MS medium (Table 2) with 3% sucrose (w/v), pH 5.8 and solidified with 0.8% agar supplemented with TDZ (0.22 μM)+BAP (4.44 μM)+gibberelic acid (0.70 μM)+IBA (0.50 μM).
All the treatments were performed with 25 replicates, each replication having 8 leaf discs. Data on number of shoots per leaf disc were recorded after 6 weeks of culture.
Leaf discs cultured on almost all hormonal combinations readily produced hard and compact callus on cut surface within 30 days of culture. The adventitious bud induction from leaf disc explants was studied in presence of various concentrations of TDZ and BAP as a source of cytokinin along with very low levels of IBA.
Data scored after 6 weeks of culture inoculation.

In the case of `O=C(O)CCCc1c[nH]c2ccccc12` [IBA, indole-3-butyric acid], in assay [1], the “Time until rooting occurred” value lay within 30 to 45 days. In assay [1] (without intermediary callus phase), the Rooting is given as 80%. `O=C(Nc1ccccc1)Nc1cnns1` [TDZ, 1-phenyl-3-(1,2,3-thiadiazol-5-yl) urea]: in assay [2], the “total number of shoot bud induction per leaf disc” value is 4-20 buds.

The values are drawn from patent publication US8304239B2, “Direct regeneration of plantlets in Jatropha curcas” (Reliance Life Sciences PVT Ltd., priority 2006, dated 2012).
